Measurements from ChEMBL document CHEMBL1201862, “PubChem BioAssay data set” (2004).
“And” between values parts separate entries of the source, which are not always exact repeats. Identical values can stand only once.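 Test compounds were applied to cells in 96-well plates for 48 hours at 5 doses. Here, GI50 denotes the concentration required for 50% inhibition of growth.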 The source made the active and inactive calls. Rule as the data show it: active = GI50 up to about 1.1 µM and inactive = higher.

Experiments:
Experiment in all cases: inhibition of tumour cell growth, NCI panel, 48 h
[1] = system: SK-MEL-28
[2] = system: HL-60
[3] = system: SF-539
[4] = system: SK-OV-3
[5] = system: COLO 205
[6] = system: EKVX
[7] = system: OVCAR-8
[8] = system: MOLT-4
[9] = system: A498
[10] = system: Malme-3M
[11] = system: SF-295
[12] = system: IGROV-1
[13] = system: NCI-H226
[14] = system: HOP-92
[15] = system: M14
[16] = system: SF-268
[17] = system: KM12
[18] = system: SK-MEL-5

Structure (SMILES)	GI50 [1]	GI50 [2]	GI50 [3]	GI50 [4]	GI50 [5]	GI50 [6]	GI50 [7]	GI50 [8]	GI50 [9]	GI50 [10]	GI50 [11]	GI50 [12]	GI50 [13]	GI50 [14]	GI50 [15]	GI50 [16]	GI50 [17]	GI50 [18]
CCCCCN(CCCCC)C(=O)[C@H](CCC(=O)OCc1ccccc1)NC(=O)c1cc2ccccc2[nH]1	> 100 µM (inactive)	> 100 µM (inactive)	> 100 µM (inactive)	> 100 µM (inactive)	> 100 µM (inactive)	> 100 µM (inactive)	> 100 µM (inactive)	> 100 µM (inactive)	> 100 µM (inactive)	> 100 µM (inactive)	> 100 µM (inactive)	> 100 µM (inactive)	> 100 µM (inactive)	> 100 µM (inactive)	> 100 µM (inactive)	> 100 µM (inactive)	> 100 µM (inactive)	
COc1cc([C@@H]2OC(=O)C3C2C(=O)O[C@H]3c2ccc(O)c(OC)c2)ccc1O (stereo partly drawn)	> 100 µM (inactive)		> 100 µM (inactive)	> 100 µM (inactive)	> 100 µM (inactive)		> 100 µM (inactive)	> 100 µM (inactive)	> 100 µM (inactive)	> 100 µM (inactive)	> 100 µM (inactive)	> 100 µM (inactive)	> 100 µM (inactive)	> 100 µM (inactive)	> 100 µM (inactive)	> 100 µM (inactive)	> 100 µM (inactive)	> 100 µM (inactive)
Clc1ccc(CNc2nc3ccccc3nc2-c2cccs2)c(Cl)c1	> 100 µM (inactive)	21.9 µM (inactive)	> 100 µM (inactive)		50 µM (inactive)	> 100 µM (inactive)	> 100 µM (inactive)	27.9 µM (inactive)		> 100 µM (inactive)	> 100 µM (inactive)		> 100 µM (inactive)	13.1 µM (inactive)		> 100 µM (inactive)		
O=C(NCc1ccc2ccc3cccnc3c2n1)c1ccc[n+](Cc2ccccc2)c1	> 100 µM (inactive)	> 100 µM (inactive)	> 100 µM (inactive)	> 100 µM (inactive)	> 100 µM (inactive)	> 100 µM (inactive)	> 100 µM (inactive)	> 100 µM (inactive)		75.2 µM (inactive)	> 100 µM (inactive)	> 100 µM (inactive)	> 100 µM (inactive)	37.7 µM (inactive)	> 100 µM (inactive)	> 100 µM (inactive)	91.4 µM (inactive)	74 µM (inactive)
O=C(N/N=C(/CCN1CCCC1)CC(c1ccccc1)c1c(O)c2ccccc2oc1=O)c1ccncc1 (stereo not drawn)		30 µM (inactive)	> 100 µM (inactive)	> 100 µM (inactive)		> 100 µM (inactive)	> 100 µM (inactive)		> 100 µM (inactive)	93.3 µM (inactive)	> 100 µM (inactive)	> 100 µM (inactive)	> 100 µM (inactive)	35 µM (inactive)	94.6 µM (inactive)	> 100 µM (inactive)	> 100 µM (inactive)	> 100 µM (inactive)
COC(=O)C(C(=O)C(=O)Nc1cccc([N+](=O)[O-])c1)c1nc2ccc([N+](=O)[O-])cc2nc1O (stereo not drawn)	> 100 µM (inactive)	> 100 µM (inactive)	> 100 µM (inactive)	> 100 µM (inactive)	> 100 µM (inactive)	> 100 µM (inactive)	> 100 µM (inactive)	> 100 µM (inactive)	> 100 µM (inactive)	> 100 µM (inactive)	> 100 µM (inactive)	> 100 µM (inactive)	> 100 µM (inactive)		> 100 µM (inactive)	> 100 µM (inactive)	> 100 µM (inactive)	> 100 µM (inactive)
CN1C(=O)CSC1=S [3-METHYL-RHODANINE]	> 100 µM (inactive)	> 100 µM (inactive)	> 100 µM (inactive)	> 100 µM (inactive)	> 100 µM (inactive)		> 100 µM (inactive)	> 100 µM (inactive)	> 100 µM (inactive)	> 100 µM (inactive)	> 100 µM (inactive)	> 100 µM (inactive)	> 100 µM (inactive)	> 100 µM (inactive)	> 100 µM (inactive)	> 100 µM (inactive)	> 100 µM (inactive)	> 100 µM (inactive)
C[C@H]1CCC/C=C/[C@@H]2C[C@H](O)C[C@H]2[C@H](O)/C=C/C(=O)O1 [BREFELDIN A]	19.2 nM (active) and < 19.9 nM (active)		< 21.4 nM (active) and 21.1 nM (active)	60.1 nM (active) and 44.1 nM (active)	14.3 nM (active) and 16.4 nM (active)		< 12.9 nM (active) and 22.2 nM (active)		< 10 nM (active) and 17.4 nM (active)	18.1 nM (active) and 11.3 nM (active)			19.9 nM (active) and 25.8 nM (active)	80 nM (active) and 41.7 nM (active)	< 16.1 nM (active) and 26.1 nM (active)		10.1 nM (active) and 10.2 nM (active)	< 10 nM (active) and 5.83 nM (active)
